This is an account of results in ChEMBL document CHEMBL1140432, “Synthesis and biological evaluation of a novel series of "ortho-nitrated" inhibitors of catechol-O-methyltransferase” (J Med Chem, 2005).

Assay [1] has as its target T1, Catechol O-methyltransferase (Rattus norvegicus, UniProt P22734).
T1 sequence (P22734 whole entry): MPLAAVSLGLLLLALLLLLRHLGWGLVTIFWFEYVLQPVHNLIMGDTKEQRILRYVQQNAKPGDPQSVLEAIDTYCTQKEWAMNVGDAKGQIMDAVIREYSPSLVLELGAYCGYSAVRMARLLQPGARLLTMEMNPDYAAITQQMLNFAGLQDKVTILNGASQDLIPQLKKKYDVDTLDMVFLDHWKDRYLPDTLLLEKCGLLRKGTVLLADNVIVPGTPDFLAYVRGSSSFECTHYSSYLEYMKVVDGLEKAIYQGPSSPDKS
Briefly: Inhibitory activity against COMT in rat liver.

The target in assay [2] is T1, Catechol O-methyltransferase. Nature of the assay: Inhibitory activity against COMT in rat brain. The class given is tissue-based.

Take `O=C(Cc1ccccc1)c1ccc(O)c(O)c1[N+](=O)[O-]`: the IC50 is 130 nM in assay [1] and 3 nM in assay [2].
For `O=C(CCc1ccccc1)c1ccc(O)c(O)c1[N+](=O)[O-]` the same measures were 2000 nM and 4 nM.
Consider `O=C(CCCc1ccccc1)c1ccc(O)c(O)c1[N+](=O)[O-]`, for which the half-maximal inhibitory concentration (IC50) in assay [1] is 130 nM; in assay [2], 4 nM.
Take `O=C(CCCCc1ccccc1)c1ccc(O)c(O)c1[N+](=O)[O-]`: the IC50 in assay [1] turned out to be 110 nM; in assay [2] it was 4 nM.
